# Measured values taken from patent US20240368092A1, “2,4-Dihydro-3H-1,2,4-Triazol-3-One P2X7 Antagonists” (Breye Therapeutics ApS, priority 2021, published 2024).
# Key:
# Assay type in all cases: cell-based
# mouseP2X7 = target: T1, mouseP2X7 (Mus musculus, UniProt Q9Z1M0); test: P2X7 channel calcium-influx assay (Fluo-8, FLIPR TETRA), mouse P2X7; conditions: HEK-293 cells stably transfected with P2X7; Bz-ATP at EC80; low divalent cation buffer; read-out: mouseP2X7 (activity range)
# T1 construct: expressed in transfected cells; host or cells: HEK-293
# T1 sequence (Q9Z1M0 1-595): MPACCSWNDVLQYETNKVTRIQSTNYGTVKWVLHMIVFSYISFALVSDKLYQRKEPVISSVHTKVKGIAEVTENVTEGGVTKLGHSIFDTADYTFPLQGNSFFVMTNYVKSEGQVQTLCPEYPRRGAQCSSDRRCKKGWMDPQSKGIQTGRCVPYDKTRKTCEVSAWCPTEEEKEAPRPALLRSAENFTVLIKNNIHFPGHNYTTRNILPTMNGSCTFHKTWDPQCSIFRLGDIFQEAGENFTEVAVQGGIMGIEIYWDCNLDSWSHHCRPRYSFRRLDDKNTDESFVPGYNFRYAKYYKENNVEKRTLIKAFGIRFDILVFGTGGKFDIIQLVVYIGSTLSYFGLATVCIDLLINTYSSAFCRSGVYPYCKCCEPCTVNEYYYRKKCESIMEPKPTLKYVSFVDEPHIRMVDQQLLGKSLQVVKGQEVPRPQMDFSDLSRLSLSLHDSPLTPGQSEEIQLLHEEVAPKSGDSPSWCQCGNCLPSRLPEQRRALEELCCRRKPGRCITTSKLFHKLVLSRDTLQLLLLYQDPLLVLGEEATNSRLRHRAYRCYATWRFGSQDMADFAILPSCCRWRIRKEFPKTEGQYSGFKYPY
# Protocol: (§1) Extracellular binding of Bz-ATP to P2X7 receptor opens the channel and allows Ca^2+ influx into the cells. This Ca^2+ entry was measured in HEK-293 cells stably transfected with P2X7 receptor using Screen Quest™ Fluo-8 No Wash Calcium Assay Kit (AAt Bioquest®, cat. 36316). Once inside the cell, the lipophilic blocking groups of Fluo-8 are cleaved by non-specific cell esterases, resulting in a negatively-charged fluorescent dye that stays inside cells. Its fluorescence increases upon binding to calcium. When HEK-293/P2X7 cells are stimulated with Bz-ATP, Ca^2+ enters the cells and the fluorescence of Fluo-8 NW increases. The dye has an absorption spectrum compatible with excitation at 488 nm by argon laser sources and its emission wavelength is in the range of 515-575 nm.
# (§2) HEK-293 cells stably transfected with P2X7 receptor were seeded overnight in growth medium at 10,000 to 20,000 cells/well in 384-well plate. 24 hours later, the medium was removed, and the cells were pre-loaded at RT for 1 hour with 20 μL/w of Fluo-8 NW. Then 10 μL/w of test compounds and reference antagonist A438079 at 3×-concentration were injected with the FLIPRTETRA and the kinetic response over a period of five minutes was monitored. A second injection of 15 μL/w of 3× reference activator (Bz-ATP at EC80) was performed with the FLIPR TETRA and the signal of the emitted fluorescence was recorded for additional three minutes. All the experiment was carried out in a Low Divalent Cation Assay Buffer (0.3 mM Ca^2+ and 0 mM Mg^2+). The effect of the test compounds was measured as percent inhibition vs the reference antagonist and IC50 values were calculated accordingly. Here are reported the potency ranges as A, B, C and D, where A is <200 nM; B is 200 nM-1 μM, C is 1-10 μM, D is 10-30 μM.
# humanP2X7 = target: T2, humanP2X7 (Homo sapiens, UniProt Q99572); test: P2X7 channel calcium-influx assay (Fluo-8, FLIPR TETRA), human P2X7; conditions: HEK-293 cells stably transfected with P2X7; Bz-ATP at EC80; low divalent cation buffer; read-out: humanP2X7 (activity range)
# T2 construct: expressed in transfected cells; host or cells: HEK-293
# T2 sequence (Q99572 1-595): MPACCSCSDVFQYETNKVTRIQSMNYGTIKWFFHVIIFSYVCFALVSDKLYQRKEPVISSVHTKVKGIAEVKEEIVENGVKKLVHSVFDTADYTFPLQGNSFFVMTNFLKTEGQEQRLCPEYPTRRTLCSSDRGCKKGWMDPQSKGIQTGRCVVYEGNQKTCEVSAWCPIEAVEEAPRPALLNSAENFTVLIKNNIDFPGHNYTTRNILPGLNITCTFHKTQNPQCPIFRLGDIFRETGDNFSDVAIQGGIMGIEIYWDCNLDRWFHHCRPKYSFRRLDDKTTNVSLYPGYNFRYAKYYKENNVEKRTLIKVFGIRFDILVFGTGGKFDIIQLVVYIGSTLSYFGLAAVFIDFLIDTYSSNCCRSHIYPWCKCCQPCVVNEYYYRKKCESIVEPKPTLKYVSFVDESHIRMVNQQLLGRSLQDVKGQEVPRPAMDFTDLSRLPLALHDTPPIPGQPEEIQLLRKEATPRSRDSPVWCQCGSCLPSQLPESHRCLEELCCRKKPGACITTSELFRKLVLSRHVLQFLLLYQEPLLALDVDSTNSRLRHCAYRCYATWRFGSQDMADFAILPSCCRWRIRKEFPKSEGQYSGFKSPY
# Protocol: as §1, §2
# human P2X7 channel = target: T3, human P2X7 channel (Homo sapiens, UniProt Q99572); test: human P2X7 channel assay by automated patch-clamp (QPatch 16X); conditions: HEK-293 cells expressing P2X7; current evoked by 100 microM BzATP; whole-cell, held at -80 mV; read-out: human Q-Patch (activity range)
# T3 construct: expressed in transfected cells; host or cells: HEK-293
# T3 sequence (Q99572 1-595): T2 sequence (Q99572 1-595)
# Protocol: In order to directly monitor the block of P2X7 channel, an electrophysiological assay was developed and implemented on the QPatchl6X automated electrophysiology instrument.
# HEK-293 cells expressing the P2X7 channels were cultured in modified EMEM.
# 72 hours before experiment, 5 million cells were seeded onto T225 flasks. Just before the experiment cells were washed twice, detached from the flask with trypsin-EDTA, re-suspended in the suspension solution and placed on the QPatch 16x.
# The compounds (20 mM in a 100% DMSO) stored at −20° C. were prepared the day of the experiment (a first dilution 1:20 in 100% DMSO to prepare a 1 mM stock solution, then a 1 microM solution in external solution+a serial dilution 1:10).
# The standard whole-cell voltage clamp experiments were performed at room temperature. From these experiments the multihole technology was used and the data were sampled at 2 KHz.
# The intracellular solution contained (mM) 135 CsF, 10 NaCl, 1 EGTA, 10 HEPES, (pH 7.2 with CsOH) whereas the extracellular contained (mM) 145 NaCl, 4 KCl, 0.5 MgCl2, 1 CaCl2, 10 HEPES, 10 Glc (pH 7.4 with NaOH).
# After establishment of the seal and the passage in the whole cell configuration, the cells were held at −80 mV. The P2XR7 current was evoked by applying 100 microM of BzATP alone (4 times) and then in the presence increasing concentrations of the compound under investigation (1, 10, 100 and 1000 nM).
# The pre-incubation periods 5 to 8 contain increasing concentrations of the compound of interest (1, 10, 100 and 1000 nM), as illustrated in FIGURE (application protocol).
# The maximal inward current evoked by BzATP in absence or presence of increasing concentrations of the compounds under investigation was measured and normalized. The potential […] effect was measured as % of control and as IC50 determined fitting the dose-response curves data with the following equation:
# Here are reported the potency ranges as A, B, C and D, where A is <10 nM; B is 10 nM-100 nM, C is 0.1-1 μM, D is 1-10 μM.
# ratP2X7 = target: T4, ratP2X7 (Rattus norvegicus, UniProt Q64663); test: P2X7 channel calcium-influx assay (Fluo-8, FLIPR TETRA), rat P2X7; conditions: HEK-293 cells stably transfected with P2X7; Bz-ATP at EC80; low divalent cation buffer; read-out: ratP2X7 (activity range)
# T4 construct: expressed in transfected cells; host or cells: HEK-293
# T4 sequence (Q64663 1-595): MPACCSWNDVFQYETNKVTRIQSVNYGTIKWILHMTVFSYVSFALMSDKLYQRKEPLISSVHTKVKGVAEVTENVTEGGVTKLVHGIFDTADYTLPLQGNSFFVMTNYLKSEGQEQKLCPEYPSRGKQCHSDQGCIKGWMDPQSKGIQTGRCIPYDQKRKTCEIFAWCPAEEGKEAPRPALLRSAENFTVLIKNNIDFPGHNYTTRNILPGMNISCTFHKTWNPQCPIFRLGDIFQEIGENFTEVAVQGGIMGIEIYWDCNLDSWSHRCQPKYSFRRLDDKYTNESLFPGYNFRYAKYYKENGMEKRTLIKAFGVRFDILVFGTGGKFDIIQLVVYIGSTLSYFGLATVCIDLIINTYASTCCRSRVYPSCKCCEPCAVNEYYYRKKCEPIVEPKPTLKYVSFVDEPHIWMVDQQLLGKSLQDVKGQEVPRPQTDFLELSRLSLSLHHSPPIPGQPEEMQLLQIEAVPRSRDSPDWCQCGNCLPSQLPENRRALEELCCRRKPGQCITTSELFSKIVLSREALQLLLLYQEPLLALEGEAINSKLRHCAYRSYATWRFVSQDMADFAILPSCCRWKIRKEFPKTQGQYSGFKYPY
# Protocol: as §1, §2
Compound,IC50 (mouseP2X7) [nM],IC50 (humanP2X7) [nM],IC50 (human P2X7 channel) [nM],IC50 (ratP2X7) [nM]
"Cn1nc(Cc2c(F)cccc2Cl)n(CCN2CCOCC2)c1=O [Example 22, 5-(2-chloro-6-fluorobenzyl)-2-methyl-4-(2-morpholinoethyl)-2,4-dihydro-3H-1,2,4-triazol-3-one]",10000 to 30000,10000 to 30000,1000 to 10000,10000 to 30000
"Cn1nc(Cc2ccccc2C(F)(F)F)n(CC2CCCCC2(C)C)c1=O (stereo not shown) [Example 23, 4-((2,2-dimethylcyclohexyl)methyl)-2-methyl-5-(2-(trifluoromethyl)benzyl)-2,4-dihydro-3H-1,2,4-triazol-3-one]",200 to 1000,200 to 1000,1000 to 10000,< 200
"Cn1nc(CC2CCCCC2)n(Cc2c(F)cccc2Cl)c1=O [Example 24, 4-(2-chloro-6-fluorobenzyl)-5-(cyclohexylmethyl)-2-methyl-2,4-dihydro-3H-1,2,4-triazol-3-one]",1000 to 10000,200 to 1000,100 to 1000,< 200
"Cn1nc(CC2CCCCC2)n(Cc2ccccc2C(F)(F)F)c1=O [Example 25, 5-(cyclohexylmethyl)-2-methyl-4-(2-(trifluoromethyl)benzyl)-2,4-dihydro-3H-1,2,4-triazol-3-one]",10000 to 30000,1000 to 10000,100 to 1000,1000 to 10000
"Cn1nc(Cc2ccccc2F)n(CC2CCC(F)(F)CC2)c1=O [Example 26, 4-((4,4-difluorocyclohexyl)methyl)-5-(2-fluorobenzyl)-2-methyl-2,4-dihydro-3H-1,2,4-triazol-3-one]",1000 to 10000,200 to 1000,100 to 1000,< 200
"Cn1nc(Cc2ccccc2F)n(CC2CCCCC2)c1=O [Example 27, 4-(cyclohexylmethyl)-5-(2-fluorobenzyl)-2-methyl-2,4-dihydro-3H-1,2,4-triazol-3-one]",1000 to 10000,1000 to 10000,1000 to 10000,< 200
"Cn1nc(Cc2ccccc2C(F)(F)F)n(CC2CCCCCC2)c1=O [Example 28, 4-(cycloheptylmethyl)-2-methyl-5-(2-(trifluoromethyl)benzyl)-2,4-dihydro-3H-1,2,4-triazol-3-one]",1000 to 10000,200 to 1000,100 to 1000,< 200
"Cn1nc(Cc2ccc(F)cc2)n(Cc2cc(-c3ncc(F)cn3)ccc2Cl)c1=O [Example 29, 4-(2-chloro-5-(5-fluoropyrimidin-2-yl)benzyl)-5-(4-fluorobenzyl)-2-methyl-2,4-dihydro-3H-1,2,4-triazol-3-one]",10000 to 30000,10000 to 30000,1000 to 10000,10000 to 30000
"Cn1nc(Cc2c(F)cccc2Cl)n(CCN2CCOCC2(C)C)c1=O [Example 30, 5-(2-chloro-6-fluorobenzyl)-4-(2-(3,3-dimethylmorpholino)ethyl)-2-methyl-2,4-dihydro-3H-1,2,4-triazol-3-one]",10000 to 30000,1000 to 10000,1000 to 10000,1000 to 10000
"Cc1ncccc1Cn1c(CC2CCCCC2)nn(C)c1=O [Example 31, 5-(cyclohexylmethyl)-2-methyl-4-((2-methylpyridin-3-yl)methyl)-2,4-dihydro-3H-1,2,4-triazol-3-one]",10000 to 30000,1000 to 10000,100 to 1000,1000 to 10000
"Cn1nc(Cc2ccccc2F)n(CC2CCCCC2(C)C)c1=O (stereo not shown) [Example 32, 4-((2,2-dimethylcyclohexyl)methyl)-5-(2-fluorobenzyl)-2-methyl-2,4-dihydro-3H-1,2,4-triazol-3-one]",1000 to 10000,1000 to 10000,1000 to 10000,< 200
"Cn1nc(Cc2c(F)cccc2Cl)n(CC2CCCCC2(C)C)c1=O (stereo not shown) [Example 33, 5-(2-chloro-6-fluorobenzyl)-4-((2,2-dimethylcyclohexyl)methyl)-2-methyl-2,4-dihydro-3H-1,2,4-triazol-3-one]",200 to 1000,< 200,10 to 100,< 200
"CCn1nc(Cc2c(F)cccc2Cl)n(CC2CCC(F)(F)CC2)c1=O [Example 34, 5-(2-chloro-6-fluorobenzyl)-4-((4,4-difluorocyclohexyl)methyl)-2-ethyl-2,4-dihydro-3H-1,2,4-triazol-3-one]",< 200,< 200,10 to 100,< 200
